Assay results reported in article PMC10777851, “SMT-738: a novel small-molecule inhibitor of bacterial lipoprotein transport targeting Enterobacteriaceae” (Antimicrobial Agents and Chemotherapy, 2023).
Values after ≈ are worked out from the molar mass of the structure shown. Values joined by “and” are separate entries in the source; they are usually repeats but may differ in a detail not shown here. Identical values can stand only once.

Columns and labels:
K. pneumoniae = assay: MIC by broth microdilution (CLSI) against K. pneumoniae; type: cell-based, Klebsiella pneumoniae
Description: (§1) MIC tests were performed by broth microdilution in-line with CLSI susceptibility testing standards ([20], [21]) either in-house or at IHMA (Europe and USA) or JMI Laboratories using cation-adjusted Mueller Hinton Broth.

[1] = tested on: members of the Enterobacterales order; assay: MIC, panel of 100 bacterial species: Enterobacterales; type: cell-based; settings: apart from the named exceptions
Description: as §1

[2] = tested on: KPM (K. pneumoniae NCTC 13438); assay: Frequency of resistance determination, K. pneumoniae; type: cell-based, Klebsiella pneumoniae; settings: for LoD Range: experiments with no colonies observed; for FoR Range: experiments with colonies observed
Description: The FoR of bacterial strains to test compounds was determined by plating aliquots of overnight cultures onto MH-agar plates containing dilutions of the test compound at various multiples of reference MIC as previously determined. Total viable counts of the overnight cultures were determined by spotting 10–20 µL of decimal dilutions in 1× phosphate-buffered saline (PBS) onto non-selective agar. Assay plates were incubated for up to 48 h with colonies being enumerated every 24 h. FoR was determined by dividing the number of colonies observed by the total number of viable cells plated. Representative colonies were then picked and streaked onto selective agar to confirm resistance and obtain resistant isolates. Isolates growing on selective agar were then used to initiate overnight cultures, bacteria pelleted by centrifugation, supernatant removed, and pellets stored at −80°C for subsequent DNA extraction and whole-genome sequencing. Genomic DNA was extracted using the DNeasy Blood and Tissue Kit (Qiagen), quantified using the Quant-iT TM PicoGreen TM dsDNA Assay Kit (Thermo Fisher Scientific), and normalized to 0.2 ng/µL in nuclease-free water. Library preparation and barcode addition were with the Nextera XT DNA Library Prep Kit (Illumina). KAPA Pure beads (Roche) were used for DNA purification. Samples were pooled to achieve 100× coverage of each sample and run on an Illumina Nextseq 500/550 Mid Output Kit v2.5 (150 cycles) (Illumina).

HEK293 = assay: Cytotoxicity (CellTiter-Glo), HEK293; type: cell-based; settings: HEK293, 24 h
Description: HepG2 (ATCC, HB-8065) and HEK293 (ATCC, CRL-1573) were sourced from ATCC. For the cytotoxicity assay, cells were seeded onto 96-well plates, which were then incubated for 24 h in a 5% CO2 incubator at 37°C. On the day of the assay, 10-point, twofold serial dilutions of test compound were prepared in assay media (MEM + 10% FBS) in separate 96-well plates. Assay plates were removed from the incubator, and the media from all of the wells were removed, taking care not to disturb the cell layer. Compound-containing assay media or control media were added to the relevant wells. Assay plates were returned to the 5% CO2 incubator at 37°C for 24 h. CellTiter-Glo reagent (Promega, G7570) was used to determine the viability of the cells.

Protein binding, mouse = type: in vitro ADME
K. pneumoniae ATCC 43816 = assay: Murine lung infection model (neutropenic); type: in vivo, male CD-1 mice; settings: 20 mg/kg per dose QD or BID, 60-min IV infusion, 24 h post-infection
Description: Male JVC-cannulated CD-1 mice were rendered neutropenic using cyclophosphamide on days −4 and −1 (150 and 100 mg/kg, respectively). Mice were infected intranasally with K. pneumoniae ATCC 43816, and SMT-738 treatment was initiated at QD, 2 h post-infection; BID, 2 and 5 h post-infection. The pre-treatment control animals were euthanized at 2 h post-infection. All other study animals were euthanized at 24 h post-infection. Lungs were dissected and homogenized and quantitatively cultured, serially diluted, and plated on CLED agar, and CFU were quantified following overnight incubation at 30°C. A Kruskal-Wallis statistical test was performed.

[3] = Solubility in formulation vehicle; type: physicochemical; settings: 20% Hydroxypropyl-β-cyclodextrin or phosphate buffer pH 6.0
[4] = 100 MDR clinical isolates incl. ESBL and CRE

With Cc1cnccc1-c1[nH]c(N)nc1-c1ccc2c(c1)N(C(=O)C(C)(C)N)CCO2 [SMT-738] the “MIC Range K. pneumoniae (NDM)” value (K. pneumoniae; 15 clinical MDR NDM isolates (NDM-1, NDM-4, NDM-5) from India (2018)) was 0.5 to 1 µg/mL, the “MIC50 K. pneumoniae” value (K. pneumoniae; [4]) was 1 µg/mL (≈ 2.55 µM) and the “MIC90 K. pneumoniae” value (K. pneumoniae; [4]) was 2 µg/mL (≈ 5.1 µM). For the same compound, the “MIC range K. pneumoniae” value (K. pneumoniae; [4]) was 0.25 to 8 µg/mL, the MIC (K. pneumoniae; K. pneumoniae ATCC 43816) was 0.5 µg/mL (≈ 1.27 µM) and the “MIC (20% HS)” value (K. pneumoniae; K. pneumoniae IHMA 1769429, 20% human serum) was 1 µg/mL (≈ 2.55 µM). The “MIC (50% HS)” value (K. pneumoniae; K. pneumoniae IHMA 1769429, 50% human serum) was 2 µg/mL (≈ 5.1 µM), the “MIC (no HS)” value (K. pneumoniae; K. pneumoniae IHMA 1769429, no human serum) was 2 µg/mL (≈ 5.1 µM) and the “MIC (20% HS)” value (K. pneumoniae; K. pneumoniae IHMA 1770556, 20% human serum) was 0.5 µg/mL (≈ 1.27 µM). The “MIC (50% HS)” value (K. pneumoniae; K. pneumoniae IHMA 1770556, 50% human serum) was 1 µg/mL (≈ 2.55 µM), the “MIC (no HS)” value (K. pneumoniae; K. pneumoniae IHMA 1770556, no human serum) was 1 µg/mL (≈ 2.55 µM) and the MIC (K. pneumoniae; K. pneumoniae NCTC 13438 (MDR, Class A KPC)) was 1.56 µM and 0.61 µg/mL. The MICref (K. pneumoniae; Kpm13438, reference MIC of the FoR experiments) was 3.13 µM and 1.22 µg/mL, the MIC [1] was 0.12 to 2 µg/mL and the “LoD Range” value ([2]; 4× MICref, 24 h) was under 2.26E-09. The “FoR Range” value ([2]; 4× MICref, 48 h) was 1.50E-09, the “LoD Range” value ([2]; 4× MICref, 48 h) was under 2.26E-09 and the “LoD Range” value ([2]; 8× MICref, 24 h) was under 2.26E-09. The “FoR Range” value ([2]; 8× MICref, 48 h) was 3.75E-10, the “LoD Range” value ([2]; 8× MICref, 48 h) was under 2.26E-09 and the “Frequency of resistance (FoR)” value ([2]; single-step selection at 4× and 8× the MIC, after 24 and 48 h) was ≤ 10^−9. For the same compound, the IC50 (HEK293) was over 200 µM, the “cytotoxicity IC50” value (HEK293) was over 78.74 µg/mL and the protein binding (Protein binding, mouse) was 66.9%. The “reduction of the bacterial burden below pre-treatment stasis level” value (K. pneumoniae ATCC 43816) was 1–2 log10 and the Solubility [3] was over 20 mg/mL.
